Results as given in PMC5716539, “The acute glucose lowering effect of specific GPR120 activation in mice is mainly driven by glucagon-like peptide 1” (PLoS ONE, 2017).

Key:
mouse GPR120 [1] = target: T1, mouse GPR120 (Mus musculus, UniProt Q7TMA4); assay: DMR assay in CHO-mGPR120 cells; type: cell-based
T1 construct: expressed in transfected cells
T1 sequence (Q7TMA4 1-361): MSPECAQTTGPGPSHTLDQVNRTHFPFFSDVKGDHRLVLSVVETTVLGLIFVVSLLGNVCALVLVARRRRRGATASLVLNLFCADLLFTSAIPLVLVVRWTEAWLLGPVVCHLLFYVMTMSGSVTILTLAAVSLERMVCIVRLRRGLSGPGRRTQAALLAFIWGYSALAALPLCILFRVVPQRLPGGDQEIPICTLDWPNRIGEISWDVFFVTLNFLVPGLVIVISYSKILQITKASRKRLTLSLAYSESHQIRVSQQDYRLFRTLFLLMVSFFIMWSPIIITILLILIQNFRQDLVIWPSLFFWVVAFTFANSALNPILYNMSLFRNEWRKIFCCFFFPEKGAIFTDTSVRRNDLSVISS
Method: (§1) DMR (dynamic mass redistribution) was measured by resonant waveguide grating (RWG) using an Epic biosensor (Corning). CHO-hGPR120, CHO-mGPR120 and CHO cells in DMEM/F-12 (Invitrogen) were cultured in fibronectin coated 384-well Epic plates (Corning) at 37°C, 95% humidity and 5% CO2 for 5 hours with 10% FBS (Sigma), followed by 19 hours without FBS. CHO-hGPR40 cells were cultured at 37°C, 95% humidity and 5% CO2 for 20–24 hours in Ham’s F-12 Nutrient Mix with GlutaMAX (Invitrogen) supplemented with Non-Essential Amino Acids (Gibco) and 10% FBS (Sigma) in fibronectin coated 384-well Epic plates (Corning). Following the incubations culture media was replaced with HBSS (Invitrogen), 20 mM HEPES (Invitrogen), pH 7.4 and 1% DMSO and equilibrated to 26°C in the Epic for thirty min before addition of agonists and detection of DMR.

human GPR40 = human GPR40 (Homo sapiens, UniProt O14842); assay: DMR assay in CHO-hGPR40 cells; type: cell-based
Method: as §1

control CHO cells [2] = assay: Calcium mobilization assay in control CHO cells; type: cell-based, Chinese hamster
Method: CHO-hGPR120 and CHO cells were cultured in DMEM/F-12 (Invitrogen) with 10% FBS (Sigma) and HEK293-mGPR40 in DMEM (Invitrogen) supplemented with 10% FBS in 384-well poly-D-Lysin coated microplates (Greiner) at 37°C, 95% humidity and 5% CO2. After 19 hours cell media was replaced with Calcium4 dye (Molecular Devices) in HBSS (Invitrogen), 20 mM HEPES (Invitrogen), pH 7.4 and 1.25 mM Probenecid (Sigma). After 1 hour at room temperature agonists were added and calcium mobilization was detected as change in fluorescence (λex = 488 and λem = 540 nm) using a FLIPR^TETRA (Molecular Devices).

control CHO cells [3] = assay: cAMP assay in control CHO cells; type: cell-based, Chinese hamster
Method: CHO-hGPR120 or CHO cells in HBSS (Invitrogen), 20 mM HEPES (Invitrogen), pH 7.4, 0.01% BSA, 1.5 mM 3-isobutyl-1-methylxanthine (Sigma) and d2-labeled cAMP (CisBio) were incubated with GPR120 agonists (1% DMSO) for 45 min at room temperature in white small-volume 384-well plates (Greiner). The reaction was terminated by addition of conjugate and lysis buffer (CisBio) supplemented with anti-cAMP Cryptate (CisBio).

[4] = tested on: dispersed wt mouse islets cell; assay: cAMP production in dispersed wild type mouse islet cells; type: cell-based; conditions: 10 μM agonist, vs control cells
Method: Mouse islets were isolated from pancreas by collagenase digestion, handpicked under microscope following multiple washing steps and dispersed to single cells using TrypLE Express (Gibco). The dispersed islet cells (20 000 cells/well) were incubated with the GPR120 agonists for 30 min in 96-well black plates (Corning) at 37°C in Krebs ringer phosphate Hepes buffer, pH 7.4, with 11 mM Glucose, 0.1% BSA and 0.5 mM 3-isobutyl-1-methylxanthine followed by addition of d2-labeled cAMP and anti-cAMP Cryptate in conjugation and lysis buffer (Cisbio). Produced cAMP was detected with homogenous time resolved fluorescence (HTRF) (λex = 340 nm, λem = 665 and 615 nm) using a Pherastar (BMG Labtech).

lean female mice = assay: Intravenous glucose tolerance test (IVGTT) in lean female mice; type: in vivo, mouse; conditions: for Basal blood glucose: 4-hour fasted female mice, oral Metabolex-36 100 mg/kg or AZ13581837 35 mg/kg, vehicle 7.8±0.2 mM; for Acute insulin response (AIR): vs controls; for Acute insulin response (AIR) / Glucose elimination between 1 and 20 min / Time after iv glucose bolus up to which insulin levels were significantly elevated: Metabolex-36 100 mg/kg; for Acute insulin response (AIR) / Glucose elimination between 1 and 20 min: AZ13581837 35 mg/kg oral; for Time after iv glucose bolus up to which insulin levels were significantly elevated: oral pre-administration, AZ13581837 35 mg/kg
Method: Lean female mice (body weight 20–25 g), were randomized on body weight and fasted 4 hours prior to the IVGTT. Metabolex-36 (100 mg/kg) was administered orally 60 min and AZ13581837 (35mg/kg) 30 min before the IVGTT ([…]). Control mice were given vehicle (0.5% HPMC, 0.1% Tween-80) at corresponding time points. The specificity of AZ13581837 was examined in IVGTT in GPR120 null mice. GPR120 agonist doses were selected to reach plasma levels of at least 10 times over the in vitro EC50 value to achieve maximal activation of GPR120 (S2 Appendix). Thirty minutes prior to the glucose load, the mice were anaesthetised (20 mg/kg fluanisone/0.8 mg/kg fentanyl (Hypnorm®, Janssen, Beerse, Belgium) and 10 mg/kg midazolam (Dormicum®, Hoffman-LaRoche, Basel, Switzerland)) to allow for rapid blood sampling. The mice were kept at a heating pad to maintain body temperature.
In separate experiments, mice were pretreated with the GLP-1 receptor antagonist exendin 9–39 (30 nmol/kg, Bachem; intraperitoneally) alone or in combination with the GPR120 agonists, 15 min prior to the IVGTT. Insulin and glucose were measured 0, 1, 5, 10, 20 and 40 min after intravenous (iv) glucose administration. In separate groups of mice total GLP-1 levels were measured 60 min after oral administration of Metabolex-36 or 30 min after AZ13581837 and in corresponding vehicle (0.5% HPMC, 0.1% Tween-80) dosed mice. Blood samples were collected in EDTA coated tubes, centrifuged at 10000xg for 4 min, and plasma was separated and stored frozen until analyzed.
In the IVGTT, the acute insulin response (AIR) was calculated as the mean of suprabasal 1 and 5 min values, and the glucose elimination was quantified using the glucose elimination constant (KG) calculated as the slope of the logarithmic transformation of circulating glucose between 1 and 20 min after the glucose bolus. Multiple comparisons between the different groups were performed by one-way ANOVA. Tukey’s or Bonferroni’s post hoc test were used to calculate statistical differences between the groups. Significant statistical difference was considered at p<0.05. Data are presented as mean ± SEM.

mouse GPR120 [5] = target: T1, mouse GPR120; assay: cAMP production in CHO cells overexpressing mouse GPR120; type: cell-based; conditions: data not shown
[6] = exendin 9–39 30 nmol/kg i.p. 15 min prior to IVGTT

Sequence of human GPR40 (O14842 whole entry): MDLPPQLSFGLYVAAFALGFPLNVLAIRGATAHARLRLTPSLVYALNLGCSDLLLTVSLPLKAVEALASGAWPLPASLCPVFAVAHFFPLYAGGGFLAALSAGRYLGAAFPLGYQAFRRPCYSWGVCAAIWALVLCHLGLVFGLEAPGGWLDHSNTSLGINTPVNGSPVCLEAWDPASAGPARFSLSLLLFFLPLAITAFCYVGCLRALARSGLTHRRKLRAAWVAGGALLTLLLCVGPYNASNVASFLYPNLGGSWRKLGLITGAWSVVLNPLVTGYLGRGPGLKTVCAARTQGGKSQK

Compound	EC50 (mouse GPR120 [1]) [nM]	DMR response in CHO-hGPR40 cells (human GPR40)	Calcium response in control CHO cells (control CHO cells [2])	cAMP levels in control CHO cells (control CHO cells [3])	cAMP production in dispersed wt mouse islet cells [4]	Basal blood glucose (lean female mice) [mM]	Acute insulin response (AIR) (lean female mice; IVGTT)	Glucose elimination between 1 and 20 min (lean female mice; IVGTT)	Acute insulin response when given together with exendin 9–39 (lean female mice; [6])	Agonist-induced increase in insulin secretion after co-administration with exendin 9–39 (lean female mice; [6])	Glucose elimination when given together with exendin 9–39 (lean female mice; [6])	Glucose lowering effect in combination with exendin 9–39 (lean female mice; [6])	Time after iv glucose bolus up to which insulin levels were significantly elevated (lean female mice)	Activation or inhibition of cAMP production in CHO cells overexpressing mouse GPR120 (mouse GPR120 [5])	Insulin secretion in IVGTT (agonist alone) (lean female mice; exendin 9–39 experiment, agonist alone vs vehicle)	Acute insulin secretion in wt mice (lean female mice; female wild type mice, AZ13581837 30 min prior to iv glucose, vs vehicle, p<0.05)	Glucose elimination in wt mice compared to compound treated GPR120 null mice (lean female mice; female wt mice, IVGTT, p<0.05)
3-(3,5-difluoro-4-((3-methyl-1-phenyl-1H-pyrazol-5-yl)methoxy)phenyl)-2-methylpropanoic acid [Metabolex-36]	130 ± 20	Neither AZ13581837 nor Metabolex-36 were able to induce a DMR response	no response	no increase	significantly reduced cAMP production	6.9 ± 0.2	significant increase	increased the glucose elimination	reduced to vehicle levels	abolished	reduced to vehicle levels	abolished	up to 5 minutes	unable to detect	–	–	–
C#Cc1cc(Oc2cccnc2)cc(N2Cc3ccccc3S2(=O)=O)c1 [AZ13581837, 2-(3-ethynyl-5-(3-pyridyloxy)phenyl)-3H-1,2-benzothiazole 1,1-dioxide]	4.3 ± 0.6	Neither AZ13581837 nor Metabolex-36 were able to induce a DMR response	no response	no increase	significantly reduced cAMP production	7.1 ± 0.3	significant increase	increased the glucose elimination	–	completely abolished	–	–	up to 10 minutes	unable to detect	significant increase	significantly increased	increased
